Data taken from BindingDB's records for aid1799746 (Csar, 2012).

Target: T1, UDP-3-O-acyl-N-acetylglucosamine deacetylase (Aquifex aeolicus (strain VF5), UniProt O67648)
T1 sequence (O67648 whole entry): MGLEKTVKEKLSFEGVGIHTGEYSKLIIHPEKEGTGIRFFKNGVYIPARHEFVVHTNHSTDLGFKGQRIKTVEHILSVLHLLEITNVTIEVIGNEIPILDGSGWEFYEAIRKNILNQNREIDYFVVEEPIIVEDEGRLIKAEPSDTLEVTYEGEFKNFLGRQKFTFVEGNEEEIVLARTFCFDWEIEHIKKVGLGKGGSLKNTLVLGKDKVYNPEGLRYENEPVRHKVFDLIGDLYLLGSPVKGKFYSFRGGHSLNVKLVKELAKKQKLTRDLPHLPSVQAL
Test: ITC
Details: pH 7; 25 °C

| Structure (SMILES) | Kd [nM] |
| --- | --- |
| NC[C@H](NC(=O)c1ccc(-c2ccccc2)cc1)C(=O)NO [CS249] | 732 |
| NC[C@H](NC(=O)c1ccc(-c2ccc(Br)cc2)cc1)C(=O)NO [CS250] | 242 |
| C[C@@H](O)[C@H](NC(=O)c1ccc(-c2ccc(Br)cc2)cc1)C(=O)NO [CS258] | 122 |
| C[C@@H](O)[C@H](NC(=O)c1ccc(C#Cc2ccccc2)cc1)C(=O)NO [CS259] | 1210 |
| C[C@@H](O)[C@H](NC(=O)c1ccc(-c2ccccc2)cc1)C(=O)NO [CS263] | 224 |
| O=C(NO)[C@H]1COC(c2ccc(F)c(C(F)(F)F)c2)=N1 [CS271] | 3960 |
| O=C(NO)[C@H]1COC(c2cc3cc(F)ccc3[nH]2)=N1 [CS272] | 2250 |
| O=C(NO)c1csc(-c2ccc(F)c(C(F)(F)F)c2)n1 [CS277] | 3500 |
| O=C(NO)[C@H]1COC(c2ccc(F)cc2)=N1 [CS279] | 14800 |
